# Read-outs that look alike come from different tables or passages of the source.
# Assays:
# [1] = system: activated partial thromboplastin time; test: Activated partial thromboplastin time; type: in vivo, human; conditions: for EC50: Homo sapiens
# [2] = system: prothrombin time; test: Prothrombin time; type: in vivo, human; conditions: for EC50: Homo sapiens; for comparable dose of rivaroxaban in PT: Monte-Carlo simulation
# [3] = for CL renal: male, human, in vivo, GCC-4401C, plasma and urine PK modeling analysis from the SAD study
# [4] = biological target: factor Xa (Bos taurus, UniProt P00743); test: LMWH assay; type: in vivo, human; conditions: GCC4401C, SAD study
# [5] = biological target: coagulation factor X (Homo sapiens, UniProt P00742); test: Coagulation factor X; type: in vivo
# coagulation factor X, sequence (P00742 235-488 limits assumed): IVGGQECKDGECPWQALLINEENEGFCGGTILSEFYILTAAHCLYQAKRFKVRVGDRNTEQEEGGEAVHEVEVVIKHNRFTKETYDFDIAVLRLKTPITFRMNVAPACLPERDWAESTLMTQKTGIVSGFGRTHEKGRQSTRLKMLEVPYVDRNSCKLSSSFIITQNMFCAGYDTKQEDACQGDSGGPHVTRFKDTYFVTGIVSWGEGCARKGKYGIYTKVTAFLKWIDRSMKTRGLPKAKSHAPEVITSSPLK
# coagulation factor X, sequence (P00742 41-179 limits assumed): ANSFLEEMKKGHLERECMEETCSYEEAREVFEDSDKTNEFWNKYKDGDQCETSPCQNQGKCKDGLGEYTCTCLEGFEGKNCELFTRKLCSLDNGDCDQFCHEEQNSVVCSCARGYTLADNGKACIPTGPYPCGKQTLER
# [6] = biological target: factor Xa (Homo sapiens, UniProt P00742); test: Antifactor Xa; type: in vivo
# factor Xa (Homo sapiens, UniProt P00742), sequence (P00742 235-488 limits assumed): as the sequence (P00742 235-488 limits assumed) above
# factor Xa (Homo sapiens, UniProt P00742), sequence (P00742 41-179 limits assumed): as the sequence (P00742 41-179 limits assumed) above
# [7] = system: antithrombin III; test: Antithrombin III; type: in vivo, human; conditions: AT III activity; GCC4401C, SAD study; Linear model
# [8] = biological target: factor X (Homo sapiens, UniProt P00742); test: Factor X chromogenic activity assay; type: in vivo; conditions: for comparable dose of rivaroxaban in FXCAA: Monte-Carlo simulation
# factor X, sequence (P00742 235-488 limits assumed): as the sequence (P00742 235-488 limits assumed) above
# factor X, sequence (P00742 41-179 limits assumed): as the sequence (P00742 41-179 limits assumed) above
# [9] = oral, cited from earlier work
# [10] = PT (INR), GCC4401C, SAD and S&MAD studies, Sigmoid Emax model
# [11] = Prothrombin time (seconds), GCC4401C, Sigmoid Emax model
# [12] = GCC4401C oral, fasted, SAD and S&MAD studies, final model
# [13] = GCC4401C oral, fasted, SAD and S&MAD studies, variance (CV %)
# [14] = GCC-4401C oral, fasted, base model
# [15] = Coagulation factor X, GCC4401C, SAD and S&MAD studies, variance (CV %)
# [16] = Coagulation factor X, GCC4401C, variance (CV %)
# [17] = Antifactor Xa activity, GCC4401C, S&MAD study, Sigmoid Emax model
# [18] = Antifactor Xa activity, GCC4401C, S&MAD study, variance (CV %)
# [19] = FXCAA, GCC4401C, S&MAD study, variance (CV %)
# [20] = Activated PT (seconds), Rivaroxaban, S&MAD, Sigmoid Emax model
# [21] = PT (INR), Rivaroxaban, S&MAD study, Simple Emax model
# [22] = rivaroxaban 20 mg, fed, S&MAD study
# [23] = rivaroxaban 20 mg, fed, S&MAD study, variance (CV %)
# [24] = Coagulation factor X, Rivaroxaban, S&MAD study, Sigmoid Emax model
# [25] = Coagulation factor X, Rivaroxaban, S&MAD study, variance (CV %)
# [26] = FXCAA, Rivaroxaban, S&MAD study, variance (CV %)
smiles,measurement,setting,value
"CS(=O)(=O)O.O=C(NC[C@H]1CN(c2ccc(N3CCNC=N3)cc2)C(=O)O1)c1ccc(Cl)s1 [GCC‐4401C, (S)−5‐chloro‐N‐((3‐(4‐(5,6‐dihydro‐1,2,4‐triazin‐1(4H)‐yl)phenyl)−2‐oxooxazolidin‐5‐yl)methyl)thiophene‐2‐carboxamide methanesulfonate]","Emax, SAD","[1]; Activated PT (seconds), GCC4401C, SAD study, Sigmoid Emax model",16.9 s
same,"Emax, SAD/MAD","[1]; Activated PT (seconds), GCC4401C, SAD/MAD study, Sigmoid Emax model",20.4 s
same,γ (shape parameter),"[1]; Activated PT (seconds), GCC4401C, Sigmoid Emax model",1.37
same,EC50,[1],0.573 µg/mL
same,EC50,"[2]; read-out: EC50, SAD, PT (INR), GCC4401C, SAD study, Sigmoid Emax model",0.426 µg/mL
same,EC50,"[2]; read-out: EC50, SAD, Prothrombin time (seconds), GCC4401C, SAD study, Sigmoid Emax model",0.563 µg/mL
same,EC50,"[2]; read-out: EC50, SAD/MAD, PT (INR), GCC4401C, SAD/MAD study, Sigmoid Emax model",1.35 µg/mL
same,EC50,"[2]; read-out: EC50, SAD/MAD, Prothrombin time (seconds), GCC4401C, SAD/MAD study, Sigmoid Emax model",1.45 µg/mL
same,comparable dose of rivaroxaban in PT,[2]; GCC-4401C 10 mg,30 to 40 mg
same,comparable dose of rivaroxaban in PT,[2]; GCC-4401C 20 mg,~40 mg
same,Emax,[2]; [10],1.32 INR
same,γ (shape parameter),[2]; [10],1.23
same,Emax,[2]; [11],15.2 s
same,γ (shape parameter),[2]; [11],1.16
same,ALAG1 (delay in absorption),[3]; [12],0.20 h
same,D1 (duration of zero-order absorption),[3]; [12],0.395 h
same,"IIV + IOVALAG1 (CV, %)",[3]; [13],0.14 (38.8)
same,"IIV + IOVD1 (CV, %)",[3]; [13],1.49 (185.4)
same,"IIVCLNR (CV, %)",[3]; [13],0.046 (21.7)
same,"IIVCLR (CV, %)",[3]; [13],0.052 (23.2)
same,"IIVKa (CV, %)",[3]; [13],0.97 (128.0)
same,"IIVVc (CV, %)",[3]; [13],0.09 (30.5)
same,"IIVVp (CV, %)",[3]; [13],0.11 (33.8)
same,Θ for WT and Vc (power covariate effect of body weight on Vc),"[3]; GCC4401C, Typical Vc=Vc(75)*(WT/75)^Θ",0.67
same,Vc,[3]; [14],55.6 L
same,Vp,[3]; [14],25.9 L
same,average steady-state volume of distribution,[3]; [14],81.5 L
same,total clearance,"[3]; GCC-4401C oral, fasted, final model",12.0 L/h
same,CL renal,[3]; nonrenal clearance (CLNR),200 mL/min
same,CL renal,[3]; renal clearance (CLR),13.7 mL/min
same,Emax,[4]; Simple Emax model,3.83
same,"IIVEC50 (CV, %)",[4]; variance (CV %),0.29 (57.4)
same,EC50,[5],5.58 µM
same,Emax,"[5]; Coagulation factor X, GCC4401C, SAD and S&MAD studies, Sigmoid Emax model",81.2%
same,IIVEC50 (%),[5]; [15],0.98 (129.4)
same,"IIVEmax (CV, %)",[5]; [15],0.10 (33.1)
same,γSAD (shape parameter),"[5]; Coagulation factor X, GCC4401C, SAD study, Sigmoid Emax model",1.07
same,γSAD/MAD (shape parameter),"[5]; Coagulation factor X, GCC4401C, SAD/MAD study, Sigmoid Emax model",0.60
same,"IIVγ (CV, %)",[5]; [16],0.24 (51.8)
same,"IOVγ (CV, %)",[5]; [16],0.09 (30.1)
same,EC50,[6],1.35 µM
same,Emax,[6]; [17],3.24 IU/mL
same,γ (shape parameter),[6]; [17],1.25
same,IIV + IOVEC50 (%),[6]; [18],0.005 (7.2)
same,"IIVEmax (CV, %)",[6]; [18],0.04 (20.8)
same,"IIVγ (CV, %)",[6]; [18],0.02 (13.4)
same,comparable dose of rivaroxaban in AFX assay,"[6]; Monte-Carlo simulation, GCC-4401C 10 mg",~20 mg
same,comparable dose of rivaroxaban in AFX,"[6]; Monte-Carlo simulation, GCC-4401C 20 mg",~40 mg
same,SLOPE,[7],0.006
same,EC50,[8],0.814 µM
same,γ (shape parameter),"[8]; FXCAA, GCC4401C, S&MAD study, Sigmoid Emax model",0.90
same,"IIVEmax (CV, %)",[8]; [19],0.01 (11.3)
same,"IIVγ (CV, %)",[8]; [19],0.06 (25.7)
same,Emax,"[8]; Factor X chromogenic activity assay, GCC4401C, S&MAD study, Sigmoid Emax model",99.8%
same,comparable dose of rivaroxaban in FXCAA,[8]; GCC-4401C 10 mg,30 to 40 mg
same,comparable dose of rivaroxaban in FXCAA,[8]; GCC-4401C 20 mg,~80 mg
"O=C(NC[C@H]1CN(c2ccc(N3CCOCC3=O)cc2)C(=O)O1)c1ccc(Cl)s1 [rivaroxaban, reference compound]",Emax,[1]; [20],12.4 s
same,γ (shape parameter),[1]; [20],0.94
same,EC50,[1],0.135 µg/mL
same,increase of Cmax with food,"[9]; >10 mg, with food vs fasting",76%
same,increase of mean area under concentration time curve with food,"[9]; >10 mg, with food vs fasting",39%
same,bioavailability,[9]; independent of food up to 10 mg,80–100%
same,EC50,[2]; [21],0.434 µg/mL
same,Emax,[2]; [21],0.71 INR
same,Emax,"[2]; Prothrombin time (seconds), Rivaroxaban, S&MAD study, Simple Emax model",6.86 s
same,D1 (duration of zero-order absorption),[3]; [22],1.07 h
same,γ (shape parameter in Weibull-type absorption model),[3]; [22],1.34
same,IIVCL (%),[3]; [23],0.015 (12.3)
same,"IIVKa (CV, %)",[3]; [23],3.3 (503.1)
same,"IIVVc (CV, %)",[3]; [23],0.01 (10.0)
same,"IIVVp (CV, %)",[3]; [23],0.06 (25.7)
same,Emax,[5]; [24],42.9%
same,γ (shape parameter),[5]; [24],0.90
same,"IIVEC50 (CV, %)",[5]; [25],0.33 (62.1)
same,"IOVEC50 (CV, %)",[5]; [25],0.25 (52.9)
same,SLOPE,"[6]; Antifactor Xa activity, Rivaroxaban, S&MAD study, Linear model",0.005
same,"IIVSLOPE (CV, %)","[6]; Antifactor Xa activity, Rivaroxaban, S&MAD study, variance (CV %)",0.01 (10.8)
same,Emax,"[8]; FXCAA, Rivaroxaban, S&MAD study, Simple Emax model",112.0%
same,"IIVEC50 (CV, %)",[8]; [26],0.07 (26.9)
same,"IOVEC50 (CV, %)",[8]; [26],0.01 (8.2)

# — PMC5080649 (CPT: Pharmacometrics & Systems Pharmacology, 2016)
